Data as given in patent US10301263B2, “Anticonvulsant compound” (Royal Holloway and Bedford New College, priority 2014, dated 2019).
pIC50: −log10 of the molar value.

Columns and labels:
AMPA receptors = assay: AMPA receptor mediated current, AMPA receptors expressed in oocytes (FIG. 1); format: cell-based
Protocol: Xenopus laevis oocytes were purchased from the European Xenopus Resource Centre, University of Portsmouth.
The bath solutions were perfused at a rate of 10 ml/min.

[1] = test system: rat entorhinal cortex-hippocampus slices; assay: PTZ-induced epileptiform activity in entorhinal cortex-hippocampus slices (CA1 field recording); format: cell-based
Protocol: The preparation of entorhinal cortex-hippocampus slices and electrophysiological recording in CA1 were described previously (Armand et al., 1998; Chang and Walker, 2011). In brief, male rats (50-150 g) were decapitated after killing by intraperitoneal injection with an overdose of pentobarbitone (500 mg/kg). The brain was removed and preserved in oxygenated ice-cold sucrose solution in mM: NaCl 87, KCl 2.5, MgCl2 7, CaCl2 0.5, NaH2PO4 1.25, NaHCO3 26.2 sucrose 75, glucose 3. Transverse slices (350 μm) were prepared with a vibratome (VIBRATOME® 1500, Intracel Ltd) and were then stored in an interface chamber containing artificial cerebrospinal fluid solution (aCSF) in mM: NaCl 119, KCl 2.5, MgSO4 1.3, CaCl2 2.5, NaH2PO4 1, NaHCO3 26.2 glucose 16.6. The slices were stored for over one hour. During the experiment, the slices were transferred from the interface chamber into a submerged recording chamber and continuously perfused with prewarmed (about 36° C.) oxygenated (95% O2, 5% CO2) aCSF. A field potential recording was made by placing a glass microelectrodes filled with aCSF solution in stratum radiatum of CA1. A bipolar stimulating electrode was positioned in the Schaffer collateral/commissural fiber pathway in stratum radiatum to confirm slice viability. […] Anticonvulsant effects were evaluated by measuring the frequency of the discharges every minute.

[2] = test system: histone deacetylase (HDAC); assay: HDAC activity assay (fluorescent kit, human nuclear enzyme extracts from HeLa cells); format: biochemical
Protocol: FIG. 4b is a graph showing quantification of a histone deacetylase (HDAC) inhibition assay employing human nuclear enzyme extracts (from HeLa cells) as the source of HDAC activity shown as fitted dose-response curves for 4-BCCA;
Histone deacetylase activity was analyzed by using an in vitro commercial assay kit, the HDAC fluorescent activity assay/drug discovery kit HDAC activity (Biomol, Plymouth Meeting, Pa.). The assay was conducted at room temperature according to the manufacturer's protocol, using Trichostatin A (a HDAC inhibitor; at 1 μM concentration) as a positive control. Data were derived from at least triplicate experiments with each experiment comprising at least duplicate measurements (n=6) normalized to controls (without VPA or fatty acids).

[3] = test system: 6 Hz corneal stimulation seizures in CF1 mice; assay: 6 Hz psychomotor seizure test; format: in vivo; conditions: Mus musculus, ip, 32 mA for 3 s
Protocol: Adult male CF1 mice (18-25 g) were pretreated intraperitoneally (i.p.) with each compound at 100-150 mg/kg. After pretreatment, each mouse was given a drop of 0.5% tetracaine hydrochloride to each eye, following by low-frequency (6 Hz) stimulation (32 mA) for 3 seconds delivered through corneal electrodes. Animals were manually restrained and released immediately following the stimulation and observed for the presence or absence of seizure activity at five time points (1/4, 1/2, 1, 2, and 4 hours). Typically, the 6 Hz stimulation results in a seizure characterized by a minimal clonic phase that is followed by stereotyped, automatistic behaviors, including twitching of the vibrissae, and Straub-tail. Animals not displaying such behaviors were considered protected.
The inventors first employed a low frequency (6 Hz), long duration (3 s) corneal stimulation model because numerous second generation anti-epileptic drugs show poor seizure control in this assay (and so such a model may provide evidence of efficacy in drug resistant epilepsy). In this model, compounds are pre-administered to mice via i.p. injection and mice are challenged with sufficient current to elicit a psychomotor response (32 mA for 3 s) (Toman et al., 1952). The model causes forelimb clonus and then automatistic behavior characteristic of limbic epilepsy in humans. […]

MES-induced seizures = assay: Maximal electroshock test (MES); format: in vivo, mice; conditions: Mus musculus, ip
Protocol: The MES is a model for generalized tonic-clonic seizures which provides an indication of a compound's ability to prevent seizure spread when all neuronal circuits in the brain are maximally active. Animals are pretreated with compounds (100-125 mg/kg) by i.p. injection. Seizure activity was induced by delivery of 60 Hz of alternating current (50 mA in mice, 150 in rats) for 0.2 s through corneal electrodes which had been primed with an electrolyte solution containing an anesthetic agent (0.5% tetracaine HCl). An animal is considered “protected” from MES-induced seizures upon abolition of the hind limb tonic extensor component of the seizure (Swinyard et al., 1995; White et al., 1995; White et al., 2007).

[4] = test system: Metrazol-induced clonic seizures; assay: Subcutaneous Metrazol seizure threshold test (scMET); format: in vivo, mice; conditions: i.p.
Protocol: Subcutaneous injection of Metrazol produces clonic seizures in animals. […] Animals were pretreated with each compound (100 mg/kg) in a similar manner to the MES test. Seizure activity was induced by administration of Metrazol (CD97: 85 mg/kg mice; 70 mg/kg rats) into skin in the midline of the neck.

corneal kindled CF1 mice [5] = assay: Corneal kindled mouse model (CKM); format: in vivo; conditions: i.p.
Protocol: This model involves the use of corneal kindled mouse model for prediction of efficacy in human partial seizures (Rowley and White, 2010). Adult male CF1 mice (18-25 g) mice were stimulated through corneal electrodes (3 mA, 60 Hz, 3 seconds) after administration of 0.5% tetracaine hydrochloride to each eye. This procedure was carried out twice daily for an average of 12 days.
After 5-7-days stimulation-free period once the mice were fully kindled, the test compounds were administrated (100 mg/kg, i.p.). Mice in each group were then tested at various time points (0.25, 0.5, 1, 2, 4 hours) after drug dosing. Mice displaying a seizure score <3 are considered protected.

[6] = test system: rat entorhinal cortex-hippocampus slices; conditions: PTZ-induced seizure-like activity in rat hippocampal slices; Chang et al., 2013; cited from earlier work
[7] = test system: Metrazol-induced clonic seizures; conditions: scMET; Rowley and White, 2010; cited from earlier work
corneal kindled CF1 mice [8] = conditions: corneal kindled mouse; cited from earlier work
[9] = DSMV IV, 2000; cited from earlier work

| potency of AMPA receptors inhibition (as determined by IC50) relative to decanoic acid (DA) and 4-ethyloctanoic acid (4-EOA) (AMPA receptors) | HDAC inhibition ([2]; FIG. 4B dose-response) | EC50 value (corneal kindled CF1 mice [5]) [mg/kg] | pIC50 ([2]; HDAC extract derived from a human cell line, read-out: IC50 against HDAC) | Compound | epileptiform activity (frequency of PTZ-induced burst discharges) ([1]; PTZ 2 mM, K+ 6 mM, 20-40 minute treatment, n=5, 1 mM) | block in seizure activity ([1]; PTZ-induced seizure-like activity in rat hippocampal slices) [%] | HDAC inhibitory effect ([2]; upto 10 mM, HDAC extract derived from a human cell line) | ED50 [3] [mg/kg] | ED50 (MES-induced seizures) [mg/kg] | EC50 value [4] [mg/kg] | reduction in seizure activity [6] [%] | equivalent effect (to EC50) dose [7] [mg/kg] | equivalent activity (to EC50) dose (corneal kindled CF1 mice [8]) [mg/kg] | concentrations found in plasma [9] [µM] |
| --- | --- | --- | --- | --- | --- | --- | --- | --- | --- | --- | --- | --- | --- | --- |
| comparable potency | no HDAC inhibition | 44 |  | CCCC[C@H]1CC[C@H](C(=O)O)CC1 [Compound 4-BCCA, trans-4-butylcyclohexane carboxylic acid] | 1.7±1.5 % of baseline | 100 | does not cause significant inhibitory effect | 81 | 100 | ~150 |  |  |  |  |
|  |  |  | 2.64 | CCCC(CCC)C(=O)O [valproic acid, 2-propylpentanoic acid] |  |  |  |  |  |  | 23 | 191 | 174 | 400 to 700 |
